US20200010482A1, “INHIBITORS OF BETA SECRETASE” (Janssen Pharmaceutica NV, priority 2017, published 2020)

Key:
[1] = target: β-secretase I (BACE1) (Homo sapiens, UniProt P56817); assay: Biochemical assay, automated (CyclOps), BACE1; settings: automated CyclOps bioassay
Method: (§1) Unless otherwise indicated all biochemicals were purchased from Sigma-Aldrich Chemical Company, Poole, Dorset, U.K. and non-aqueous solvents, of analytical or higher grade, were purchased from ThermoFisher Scientific, Loughborough, U.K. MilliQ water (Elix 5 & MilliQ Gradient; Merck Millipore) was used as the base aqueous solvent to make up the biological buffers. Base assay buffer was prepared by adding a 50 mM solution of citric acid (1.00244; Merck Biosciences) to stirring solution of 50 mM trisodium citrate (1.06448; Merck Biosciences) until a final pH of 5.0 was achieved. […] All assays were routinely carried out in 384-well assay plates (Costar 4514; Corning Life Sciences) and incubated at 37±1° C. for 60 min. prior to reading the endpoint fluorescence intensity. The (7-methoxyl coumarin-4-yl)acetic acid based substrate β-secretase substrate VI (M2465; Bachem) was prepared as a 1 mM stock in 100% DMSO (D/4121/PB08; ThermoFisher). Assay buffer was prepared by adding DMSO to base buffer to a final concentration of 1% (vol./vol.). β-secretase I (18.64 μM; “BACE1”) and β-secretase II (4.65 μM; “BACE2”) were obtained from Janssen Pharmaceutica, Beerse, Belgium and were stored as frozen aliquots (˜20 μl) and thawed as required.
(§2) Typically 12.5 μl of assay buffer was dispensed to rows B to P of the assay plate. To row A was added 18.75 μl of test compound diluted appropriately in assay buffer. A 6.25 μl aliquot of sample was transferred from row A to row B and the sample mixed three times by pipette. The process was repeated down the plate and 6.25 μl of solution discarded at row N post-mix. Rows O and P were designated as the positive and negative controls. To row P was added 6.25 μl base buffer. To rows A to O was added 6.25 μl enzyme (freshly prepared 40 nM BACE1 or 40 nM BACE2) diluted in base buffer. To initiate the assay 6.25 μl of freshly prepared 80 μM substrate, made up by diluting the 1 mM in 100% DMSO solution into HPLC grade water (Optima W6-212; ThermoFisher), was added to all the wells. The assay plate was covered and incubated at 37±1° C. for 60 min. The fluorescence intensity of the wells was read at 360/405 nm (excitation/emission) utilising a nine reads per well protocol (50 ms integration; density of 3, 0.25 mm spacing; SpectraMAX Paradigm plate reader; TUNE cartridge; SoftMax Pro v 6.3 software; Molecular Devices UK Ltd., Wokingham, Berkshire, UK) and outputting the median value of the nine reads as a text file. Data analysis was carried out using Prism software v 6.3 (GraphPad Inc., San Diego, Calif., USA) using the non-linear regression analysis models supplied by the vendor. For IC50 determinations the four parameter logistic variable slope model was used to fit the raw fluorescence intensity data with the ‘bottom’ fixed to the negative control.
(§3) The CyclOps bioassay module consisted of a fraction collection station, a reagent station, liquid handling robotics, plate store and an integrated plate reader (SpectraMAX Paradigm, TUNE cartridge, SoftMax Pro v 6.3; Molecular Devices). The fraction collection station composed of a 384 well collection plate (P-384-240SQ-C; Axygen, Union City, Calif., USA) mounted on a H-portal carriage (Festo AG & Co. KG, Esslingen, Germany), a syringe drive and a two-way six port injection valve fitted with a 200 μl loop (VICI AG International, Schenkon Switzerland). The output of the injection valve was addressable to all the positions of a 384 well collection plate. The reagent station consisted of hydraulically cooled (10-12° C.) aluminium segments; each manufactured to house a SBS microtiter plate footprint. Independent addressable reagent stations were housed within these sections. Where required, custom aluminium housings were used to accommodate standard laboratory plastic ware (e.g. Eppendorf tubes, Falcon tubes, etc.). As and when required the reagent reservoirs were covered and the lids contained holes through which the Teflon-coated probe could access solutions. […]

[2] = target: T1, β-secretase II (BACE2) (Homo sapiens, UniProt Q9Y5Z0); assay: Biochemical assay, automated (CyclOps), BACE2; settings: automated CyclOps bioassay
T1 sequence (Q9Y5Z0 63-518): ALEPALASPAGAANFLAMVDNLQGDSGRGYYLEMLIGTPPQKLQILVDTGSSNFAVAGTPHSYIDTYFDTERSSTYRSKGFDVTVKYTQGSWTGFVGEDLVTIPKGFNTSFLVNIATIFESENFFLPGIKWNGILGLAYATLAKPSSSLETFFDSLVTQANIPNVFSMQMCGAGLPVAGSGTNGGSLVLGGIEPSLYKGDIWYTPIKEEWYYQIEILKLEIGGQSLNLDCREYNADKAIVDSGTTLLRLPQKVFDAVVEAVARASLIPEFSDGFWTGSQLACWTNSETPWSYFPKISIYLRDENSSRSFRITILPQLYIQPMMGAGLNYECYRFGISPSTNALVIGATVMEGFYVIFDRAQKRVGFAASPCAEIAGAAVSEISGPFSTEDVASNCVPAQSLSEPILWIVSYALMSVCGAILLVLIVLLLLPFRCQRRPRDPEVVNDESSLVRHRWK
Method: as §1, §2, §3

β-secretase I (BACE1), sequence (P56817 46-501): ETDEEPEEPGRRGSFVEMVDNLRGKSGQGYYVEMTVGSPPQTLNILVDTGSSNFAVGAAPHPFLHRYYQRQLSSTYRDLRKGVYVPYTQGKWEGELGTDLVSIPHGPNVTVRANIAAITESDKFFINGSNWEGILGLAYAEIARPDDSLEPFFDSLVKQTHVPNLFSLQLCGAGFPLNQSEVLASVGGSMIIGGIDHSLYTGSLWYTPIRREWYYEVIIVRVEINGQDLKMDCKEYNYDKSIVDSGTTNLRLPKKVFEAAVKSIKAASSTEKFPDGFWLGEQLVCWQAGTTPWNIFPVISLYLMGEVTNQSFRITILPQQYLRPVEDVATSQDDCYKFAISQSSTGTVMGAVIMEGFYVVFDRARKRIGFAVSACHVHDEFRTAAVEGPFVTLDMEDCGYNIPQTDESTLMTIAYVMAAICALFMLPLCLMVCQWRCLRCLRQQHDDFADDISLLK

COc1ncc(-c2coc3ccccc23)c2c1C[C@]1(c3ccc(F)cc3F)N=C(N)SC[C@@H]1C2 [Compound 130]
AUTOMATED ASSAY BACE1 pIC50 [1]: 7.4 | AUTOMATED ASSAY BACE2 pIC50 [2]: 7.03

COc1ncc(-c2c(C)noc2C)c2c1C[C@]1(c3cc(OCCC4CCCC4)ccc3F)N=C(N)SC[C@@H]1C2 [Compound 150]
AUTOMATED ASSAY BACE1 pIC50 [1]: 6.12 | AUTOMATED ASSAY BACE2 pIC50 [2]: 5.3

COc1cccc(COc2ccc(F)c([C@]34Cc5c(OC)ncc(-c6c(C)noc6C)c5C[C@H]3CSC(N)=N4)c2)c1 [Compound 145]
AUTOMATED ASSAY BACE1 pIC50 [1]: 6.89 | AUTOMATED ASSAY BACE2 pIC50 [2]: 5.52

COc1ncc(-c2c(C)noc2C)c2c1C[C@]1(c3cc(OCCC4CCCCC4)ccc3F)N=C(N)SC[C@@H]1C2 [Compound 149]
AUTOMATED ASSAY BACE1 pIC50 [1]: 5.09 | AUTOMATED ASSAY BACE2 pIC50 [2]: 5.17

COc1ncc(/C=C/c2ccc(F)cc2)c2c1C[C@]1(c3ccc(F)cc3F)N=C(N)SC[C@@H]1C2 [Compound 48]
AUTOMATED ASSAY BACE1 pIC50 [1]: 7.76 | AUTOMATED ASSAY BACE2 pIC50 [2]: 7.63

COc1ncc(-c2c(C)noc2C)c2c1C[C@]1(c3cc(OCc4c(C)noc4C)ccc3F)N=C(N)SC[C@@H]1C2 [Compound 153]
AUTOMATED ASSAY BACE1 pIC50 [1]: 6.73 | AUTOMATED ASSAY BACE2 pIC50 [2]: 6.64

COc1ncc(-c2ccccc2)c2c1C[C@]1(c3cc(OCc4ccccc4)ccc3F)N=C(N)SC[C@@H]1C2 [Compound 138]
IC50 ([1]; read-out: AUTOMATED ASSAY BACE1 pIC50 (converted)): 61.7 nM | IC50 ([2]; read-out: AUTOMATED ASSAY BACE2 pIC50 (converted)): 32.4 nM

COc1ncc(-c2cccc3cnccc23)c2c1C[C@]1(c3ccc(F)cc3F)N=C(N)SC[C@@H]1C2 [Compound 132]
AUTOMATED ASSAY BACE1 pIC50 [1]: 7.82 | AUTOMATED ASSAY BACE2 pIC50 [2]: 7.16

COc1ncc(-c2ccccc2F)c2c1C[C@]1(c3ccc(F)cc3F)N=C(N)SC[C@@H]1C2 [Compound 50]
AUTOMATED ASSAY BACE1 pIC50 [1]: 8.28 | AUTOMATED ASSAY BACE2 pIC50 [2]: 7.96

COc1ncc(-c2cc(F)cc(F)c2)c2c1C[C@]1(c3ccc(F)cc3F)N=C(N)SC[C@@H]1C2 [Compound 54]
AUTOMATED ASSAY BACE1 pIC50 [1]: 8.54 | AUTOMATED ASSAY BACE2 pIC50 [2]: 8.42

COc1ncc(-c2cc(C(F)(F)F)ccc2F)c2c1C[C@]1(c3ccc(F)cc3F)N=C(N)SC[C@@H]1C2 [Compound 51]
AUTOMATED ASSAY BACE1 pIC50 [1]: 7.34 | AUTOMATED ASSAY BACE2 pIC50 [2]: 6.83

COc1ncc(-c2ccccc2C)c2c1C[C@]1(c3cc(OCC4CCC4)ccc3F)N=C(N)SC[C@@H]1C2 [Compound 142]
AUTOMATED ASSAY BACE1 pIC50 [1]: 8.4 | AUTOMATED ASSAY BACE2 pIC50 [2]: 7.28

COc1ncc(-c2cccc(C)c2C)c2c1C[C@]1(c3ccc(F)cc3F)N=C(N)SC[C@@H]1C2 [Compound 56]
AUTOMATED ASSAY BACE1 pIC50 [1]: 8.11 | AUTOMATED ASSAY BACE2 pIC50 [2]: 7.63

COc1ncc(-c2ccccc2)c2c1C[C@]1(c3cc(OCc4ccc(F)cc4)ccc3F)N=C(N)SC[C@@H]1C2 [Compound 154]
AUTOMATED ASSAY BACE1 pIC50 [1]: 7.51 | AUTOMATED ASSAY BACE2 pIC50 [2]: 7.88

COc1ncc(-c2c(C)noc2C)c2c1C[C@]1(c3cc(OCCOC4CCCCC4)ccc3F)N=C(N)SC[C@@H]1C2 [Compound 148]
AUTOMATED ASSAY BACE1 pIC50 [1]: 6 | AUTOMATED ASSAY BACE2 pIC50 [2]: 5.19

COc1ncc(-c2ccccc2C)c2c1C[C@]1(c3cc(OCCc4c(C)noc4C)ccc3F)N=C(N)SC[C@@H]1C2 [Compound 144]
AUTOMATED ASSAY BACE1 pIC50 [1]: 7.42 | AUTOMATED ASSAY BACE2 pIC50 [2]: 6.43

COc1ccc(F)cc1-c1cnc(OC)c2c1C[C@H]1CSC(N)=N[C@@]1(c1cc(OCC3CCOCC3)ccc1F)C2 [Compound 143]
AUTOMATED ASSAY BACE1 pIC50 [1]: 6.43 | AUTOMATED ASSAY BACE2 pIC50 [2]: 4.78

COc1ncc(-c2cccc3cnn(C)c23)c2c1C[C@]1(c3ccc(F)cc3F)N=C(N)SC[C@@H]1C2 [Compound 127]
AUTOMATED ASSAY BACE1 pIC50 [1]: 6.77 | AUTOMATED ASSAY BACE2 pIC50 [2]: 5.6

COc1ncc(-c2c(C)noc2C)c2c1C[C@]1(c3cc(OCc4cccc(C#N)c4)ccc3F)N=C(N)SC[C@@H]1C2 [Compound 147]
AUTOMATED ASSAY BACE1 pIC50 [1]: 7.7 | AUTOMATED ASSAY BACE2 pIC50 [2]: 6.64

COc1ncc(-c2ccccc2F)c2c1C[C@]1(c3cc(OCCC#N)ccc3F)N=C(N)SC[C@@H]1C2 [Compound 156]
AUTOMATED ASSAY BACE1 pIC50 [1]: 6.32 | AUTOMATED ASSAY BACE2 pIC50 [2]: 6.36

COc1ncc(-c2csc3ccccc23)c2c1C[C@]1(c3ccc(F)cc3F)N=C(N)SC[C@@H]1C2 [Compound 133]
AUTOMATED ASSAY BACE1 pIC50 [1]: 8.6 | AUTOMATED ASSAY BACE2 pIC50 [2]: 7.67

COc1ncc(-c2ccc(F)cc2C)c2c1C[C@]1(c3ccc(F)cc3F)N=C(N)SC[C@@H]1C2 [Compound 58]
AUTOMATED ASSAY BACE1 pIC50 [1]: 7.77 | AUTOMATED ASSAY BACE2 pIC50 [2]: 6.99

COc1ncc(-c2cccc3c2OCCC3)c2c1C[C@]1(c3ccc(F)cc3F)N=C(N)SC[C@@H]1C2 [Compound 128]
AUTOMATED ASSAY BACE1 pIC50 [1]: 7.01 | AUTOMATED ASSAY BACE2 pIC50 [2]: 6.19

COc1cc(C)c(-c2cnc(OC)c3c2C[C@H]2CSC(N)=N[C@@]2(c2cc(OCC4CCOCC4)ccc2F)C3)cn1 [Compound 152]
AUTOMATED ASSAY BACE1 pIC50 [1]: 7.52 | AUTOMATED ASSAY BACE2 pIC50 [2]: 5.65

COc1ncc(-c2c(C)noc2C)c2c1C[C@]1(c3cc(OC4CCOCC4)ccc3F)N=C(N)SC[C@@H]1C2 [Compound 146]
AUTOMATED ASSAY BACE1 pIC50 [1]: 6.74 | AUTOMATED ASSAY BACE2 pIC50 [2]: 6.63

COc1ccc(OC)c(-c2cnc(OC)c3c2C[C@H]2CSC(N)=N[C@@]2(c2cc(OCc4ccccc4F)ccc2F)C3)c1 [Compound 139]
AUTOMATED ASSAY BACE1 pIC50 [1]: 5.55 | AUTOMATED ASSAY BACE2 pIC50 [2]: 4.97

COc1ncc(-c2c(C)noc2C)c2c1C[C@]1(c3cc(OCC4CCC4)ccc3F)N=C(N)SC[C@@H]1C2 [Compound 155]
AUTOMATED ASSAY BACE1 pIC50 [1]: 7.77 | AUTOMATED ASSAY BACE2 pIC50 [2]: 6.12

COc1ncc(-c2ccc(Cl)c(C)c2)c2c1C[C@]1(c3ccc(F)cc3F)N=C(N)SC[C@@H]1C2 [Compound 59]
AUTOMATED ASSAY BACE1 pIC50 [1]: 7.68 | AUTOMATED ASSAY BACE2 pIC50 [2]: 7.15
